The source of these data is patent publication US20250241328A1, “REDUCTANT TREATMENT METHODS FOR FOOD PRODUCT PRECURSORS” (Impossible Foods Inc., priority 2022, published 2025).

One series deals with bacterial bioburden. Nature of the series: Bacterial bioburden of heme samples following HTST treatment. Type of series: cell-based. The conditions noted are these: 15 mM and 35 mM cysteine, heme samples at pH 9.5.
Series [1] deals with aerobic plate count (gram negative and gram positive bacteria). The series can be described thus: Refrigerated shelf-life study of HTST-treated soy leghemoglobin, aerobic plate count. Type of series: cell-based. The conditions noted are these: HTST-treated soy leghemoglobin (LegH). The source says:
APC captures both gram negative and gram positive bacteria, whereas lactic acid bacteria (LAB) captures gram positive bacteria (FIG. 1B).

The next series relates to E. coli. The series can be described thus: Pathogen reduction during HTST in leghemoglobin samples. Type of series: cell-based. The source says: (§1) Salmonella and E. coli are gram negative bacteria, and Listeria is gram positive. Addition of cysteine reduced the CFU/g of E. coli even in the absence of heat.
(§2) FIGS. 2A, 2B, and 2C are tables showing the reduction of pathogens in leghemoglobin samples with and without cysteine.

The next series has as its system Listeria. The description is as above. As to conditions: cysteine treatment during HTST. Type of series: cell-based.
Text: as §1, §2

The subject of a further series is Salmonella. The description is as above. As to conditions: cysteine treatment during HTST. Type of series: cell-based.
Text: as §1, §2

The target of a further series is T1, LegH (Glycine max, UniProt P02236).
T1 construct: made in house; host or cells: Pichia
The series can be described thus: LegH concentration after HTST of LegH Prep by UPLC (thermostability). Type of series: physicochemical, soy. As to conditions: HTST 20 seconds, 68-72° C. As for the experimental part:
This decrease in concentration is due to LegH aggregating or denaturing in response to heat. […] For UPLC, there is a resolved peak at the LegH retention time that can be tracked by 415 nm absorbance but the integration is performed on the 280 nm peak at that position.

Series [2] in a line: Percent suspended solids after HTST of LegH Prep. Type of series: physicochemical. The conditions noted are these: HTST 20 seconds, 68-72° C. The source says: Suspended solid formation is likely due to aggregation or denaturation of the Pichia proteins within LegH Prep in response to heat. […] Increased suspended solids changes the physical properties of the protein solution and are typically associated with increased viscosity.

Series [3] in a line: Colorimetric properties (L*c*h) of LegH Prep after HTST. Type of series: physicochemical. As to conditions: HTST 20 seconds, 68-72° C. As for the experimental part:
This color decline is due to LegH denaturation as well as potentially off-color formation produced by Pichia proteins in response to heat. […] FIG. 6 was performed at 15 mM cysteine, a temperature of 65° C., and a duration of 20 seconds. Performing HTST in the presence of cysteine results in less change in both chroma and hue angle show a decrease after HTST compared to performing HTST in the absence of cysteine.

T1 sequence (P02236 whole entry): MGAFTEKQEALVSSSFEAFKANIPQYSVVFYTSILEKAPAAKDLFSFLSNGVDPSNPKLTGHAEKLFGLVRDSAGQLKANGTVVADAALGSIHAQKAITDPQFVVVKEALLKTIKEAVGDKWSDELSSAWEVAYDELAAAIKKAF

For `N[C@@H](CS)C(=O)O` [cysteine, L-cysteine], in the series on bacterial bioburden, the “bacterial bioburden CFU/g following HTST treatment” value was “decreases bacterial bioburden”. Moreover, the “aerobic plate count (APC) stability” value in series [1] was “cysteine-dependent increase”. In addition, the “CFU/g reduction of E. coli” value with E. coli (cysteine treatment during HTST) is “significantly increased”. Moreover, the “CFU/g of E. coli” value in the series with E. coli (in the absence of heat) is listed as “reduced”. Moreover, the “CFU/g reduction of Listeria” value in the series on Listeria is “significantly increased”. In the series on Salmonella, the “CFU/g reduction of Salmonella” value is “significantly increased”. The “decrease in LegH concentration after HTST” value on LegH is “diminished in a dose-dependent manner”. For the same compound, the “increase in percent suspended solids (% SS) after HTST” value in series [2] is “diminished in a dose-dependent manner”. Moreover, in series [3], the “decline in L*c*h after HTST” value is listed as “diminished in a dose-dependent manner”.
